According to patent US6727244B2, “Mammalian metabolites of a tachykinin receptor antagonist” (Merck & Co., Inc., priority 2000, dated 2004):

Key:
[1] = oxidative metabolism in liver microsomes from humans; assay type: in vitro ADME; conditions: human liver microsomes, 15 min incubation
Method: All liver microsomal and cytosolic fractions were prepared using the following procedure. Thawed livers were homogenized with 2 volumes of 50 mM Tris-buffer (pH 7.5) containing 1.15% KCl. For microsomal and cytosolic preparations, the homogenate was centrifuged for 20 min at 9,000×g and the resulting supernatant was centrifuged for 60 min at 105,000×g. The resulting cytosolic fractions were re-centrifuged at 105,000×g for 60 min. Fractions of cytosol were aliquoted into small tubes and stored at −70° C. Subsequently, the microsomal pellets were washed with 10 mM EDTA containing 1.15% KCl and were centrifuged at 105,000×g for 60 min. Washed microsomes were resuspended in 10 mM potassium phosphate buffer (pH 7.4) containing 250 mM sucrose, aliquoted into small tubes, and stored at −70° C. Protein concentrations were determined by a modified Lowry assay (Smith et al., 1985). The specific cytochrome P450 content in each microsomal preparation was measured as described by Omura and Sato, J. Biol. Chem. 239, 2370-2378 (1964). […]
Method A was conducted on a Shimadzu HPLC system (Shimadzu Scientific Instruments Inc., Columbia Md.). The parent compounds and their metabolites were monitored directly using a radiometric detector (INUS Systems Inc. Tampa, Fla.) and Ultima-Flow M (Packard Instrument Co., Meridan Conn.) as scintillant at a flow rate of 3 mL/min. […]

human NK1 receptor = target: T1, human NK1 receptor (Homo sapiens, UniProt P25103); test: human NK1 receptor binding assay (125I-substance P, COS or CHO cells)
T1 construct: expressed in transfected cells
Method: To express the cloned human neurokinin-1 receptor (NKIR) transiently in COS, the cDNA for the human NKIR was cloned into the expression vector pCDM9 which was derived from pCDM8 (INVITROGEN) by inserting the ampicillin resistance gene (nucleotide 1973 to 2964 from BLUESCRIPT SK+) into the Sac II site. Transfection of 20 ug of the plasmid DNA into 10 million COS cells was achieved by electroporation in 800 ul of transfection buffer (135 mM NaCl, 1.2 mM CaCl2, 1.2 mM MgCl2, 2.4 mM K2HPO4, 0.6 mM KH2PO4, 10 mM glucose, 10 mM HEPES pH 7.4) at 260 V and 950 uF using the IBI GENEZAPPER (IBI, New Haven, Conn.). The cells were incubated in 10% fetal calf serum, 2 mM glutamine, 100U/ml penicillin-streptomycin, and 90% DMEM media (GIBCO, Grand Island, N.Y.) in 5% CO2 at 37° C. for three days before the binding assay.
To establish a stable cell line expressing the cloned human NK1R, the cDNA was subcloned into the vector pRcCMV (INVITROGEN). Transfection of 20 ug of the plasmid DNA into CHO cells was achieved by electroporation in 800 ul of transfection buffer suplemented with 0.625 mg/ml Herring sperm DNA at 300 V and 950 uF using the IBI GENEZAPPER (IBI). The transfected cells were incubated in CHO media [10 % fetal calf serum, 100 U/ml pennicilin-streptomycin, 2 mM glutamine, 1/500 hypoxanthine-thymidine (ATCC), 90% IMDM media (JRH BIOSClENCES, Lenexa, Kans.), 0.7 mg/ml G418 (GIBCO)] in 5% CO2 at 37° C. until colonies were visible. Each colony was separated and propagated. The cell clone with the highest number of human NK1R was selected for subsequent applications such as drug screening.
The binding assay of human NK1R expressed in either COS or CHO cells is based on the use of ^125I-substance P (^125I-SP, from DU PONT, Boston, Mass.) as a radioactively labeled ligand which competes with unlabeled substance P or any other ligand for binding to the human NK1R. Monolayer cell cultures of COS or CHO were dissociated by the non-enzymatic solution (SPECIALTY MEDIA, Lavallette, N.J.) and resuspended in appropriate volume of the binding buffer (50 mM Tris pH 7.5, 5 mM MnCl2, 150 mM NaCl, 0.04 mg/ml bacitracin, 0.004 mg/ml leupeptin, 0.2 mg/ml BSA, 0.01 mM phosphoramidon) such that 200 ul of the cell suspension would give rise to about 10,000 cpm of specific ^125I-SP binding (approximately 50,000 to 200,000 cells). […] The bound radioactivity was separated from unbound radioactivity by GF/C filter (BRANDEL, Gaithersburg, Md.) which was pre-wetted with 0.1 % polyethylenimine. The filter was washed with 3 ml of wash buffer (50 mM Tris pH 7.5, 5 mM MnCl2, 150 mM NaCl) three times and its radioactivity was determined by gamma counter.

T1 sequence (P25103 whole entry): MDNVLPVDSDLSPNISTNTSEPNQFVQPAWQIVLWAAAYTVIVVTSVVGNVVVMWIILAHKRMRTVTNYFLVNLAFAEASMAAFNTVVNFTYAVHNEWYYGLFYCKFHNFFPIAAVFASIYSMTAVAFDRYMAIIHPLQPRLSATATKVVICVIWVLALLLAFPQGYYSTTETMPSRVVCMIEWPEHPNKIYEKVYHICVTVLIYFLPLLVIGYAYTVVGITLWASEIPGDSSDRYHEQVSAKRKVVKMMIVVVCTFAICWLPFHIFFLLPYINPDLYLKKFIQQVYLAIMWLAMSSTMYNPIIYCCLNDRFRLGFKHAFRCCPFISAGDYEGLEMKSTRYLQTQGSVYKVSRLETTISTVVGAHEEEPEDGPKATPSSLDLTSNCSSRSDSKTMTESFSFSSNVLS

C[C@@H](O[C@H]1OCCN[C@H]1c1ccc(F)cc1)c1cc(C(F)(F)F)cc(C(F)(F)F)c1 [Metabolite M-1, (2R,3S)-2-[(1R)-1-[3,5-bis(trifluoromethyl)phenyl]ethoxy]-3-(4-fluorophenyl)morpholine]
parent compound remained after incubation [1]: ~50% | IC50 (human NK1 receptor): 1 nM
